PubChem BioAssay AID1963825 (Molecular Pharmacology Branch, DTP, NCI, 2024)

Test: Anticancer human tumor 997537-175-T-J1-PDC patient-derived colon adenocarcinoma cell line growth inhibition [POLQ]
Conditions: 997537-175-T-J1-PDC complex spheroid viability, combination with POLQ inhibitors; for IC50: curve of first compound; for viability, T/C: stronger effect = lower value
How it was run: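 Growth inhibition in 3D: complex spheroids (tumor PDC, HUVEC, MSC) treated with POLQ inhibitor combinations; where Cmax unknown, highest tested concentration 10 microM, except SN-38 at 1 microM.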

[1] = second compound 0.0316 µM, first compound 0.0316 µM
[2] = second compound 0.0316 µM, first compound 0.1 µM
[3] = second compound 0.0316 µM, first compound 0.316 µM
[4] = second compound 0.0316 µM, first compound 1 µM
[5] = second compound 0.1 µM, first compound 0.0316 µM
[6] = second compound 0.1 µM, first compound 0.1 µM
[7] = second compound 0.1 µM, first compound 0.316 µM
[8] = second compound 0.1 µM, first compound 1 µM
[9] = second compound 0.316 µM, first compound 0.0316 µM
[10] = second compound 0.316 µM, first compound 0.1 µM
[11] = second compound 0.316 µM, first compound 0.316 µM
[12] = second compound 0.316 µM, first compound 1 µM
[13] = second compound 1 µM, first compound 0.0316 µM
[14] = second compound 1 µM, first compound 0.1 µM
[15] = second compound 1 µM, first compound 0.316 µM
[16] = second compound 1 µM, first compound 1 µM
[17] = second compound 3.16 µM, first compound 0.0316 µM
[18] = second compound 3.16 µM, first compound 0.1 µM
[19] = second compound 3.16 µM, first compound 0.316 µM
[20] = second compound 3.16 µM, first compound 1 µM
[21] = second compound 10 µM, first compound 0.0316 µM
[22] = second compound 10 µM, first compound 0.1 µM
[23] = second compound 10 µM, first compound 0.316 µM
[24] = second compound 10 µM, first compound 1 µM
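Also: luminescence signal used as a surrogate for viable cells; spheroids exposed to drugs for seven days before readout.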

## O=C(c1cc(Cc2n[nH]c(=O)c3ccccc23)ccc1F)N1CCN(C(=O)C2CC2)CC1 + Cc1cccc(N(C)C(=O)C2C(O)CCN2c2nc(C)cc(C(F)(F)F)c2C#N)c1
Second compound 0.0316 µM
  IC50: > 10000 nM
Second compound 0.1 µM
  IC50: > 10000 nM
Second compound 0.316 µM
  IC50: > 10000 nM
Second compound 1 µM
  IC50: > 10000 nM
Second compound 3.16 µM
  IC50: > 10000 nM
Second compound 10 µM
  IC50: > 10000 nM
[1]
  viability, T/C: 107%
[2]
  viability, T/C: 97.5%
[3]
  viability, T/C: 94.8%
[4]
  viability, T/C: 92.3%
Second compound 0.0316 µM, first compound 3.16 µM
  viability, T/C: 102%
Second compound 0.0316 µM, first compound 10 µM
  viability, T/C: 103%
[5]
  viability, T/C: 91.9%
[6]
  viability, T/C: 108%
[7]
  viability, T/C: 102%
[8]
  viability, T/C: 105%
Second compound 0.1 µM, first compound 3.16 µM
  viability, T/C: 101%
Second compound 0.1 µM, first compound 10 µM
  viability, T/C: 86.2%
[9]
  viability, T/C: 107%
[10]
  viability, T/C: 105%
[11]
  viability, T/C: 109%
[12]
  viability, T/C: 99%
Second compound 0.316 µM, first compound 3.16 µM
  viability, T/C: 118%
Second compound 0.316 µM, first compound 10 µM
  viability, T/C: 110%
[13]
  viability, T/C: 99.1%
[14]
  viability, T/C: 102%
[15]
  viability, T/C: 109%
[16]
  viability, T/C: 97.1%
Second compound 1 µM, first compound 3.16 µM
  viability, T/C: 100%
Second compound 1 µM, first compound 10 µM
  viability, T/C: 87.5%
[17]
  viability, T/C: 101%
[18]
  viability, T/C: 108%
[19]
  viability, T/C: 92.2%
[20]
  viability, T/C: 92.1%
Second compound 3.16 µM, first compound 3.16 µM
  viability, T/C: 97.5%
Second compound 3.16 µM, first compound 10 µM
  viability, T/C: 103%
[21]
  viability, T/C: 99.3%
[22]
  viability, T/C: 87.3%
[23]
  viability, T/C: 91.1%
[24]
  viability, T/C: 97%
Second compound 10 µM, first compound 3.16 µM
  viability, T/C: 87.1%
Second compound 10 µM, first compound 10 µM
  viability, T/C: 96.4%

## CCc1c2c(nc3ccc(O)cc13)-c1cc3c(c(=O)n1C2)COC(=O)[C@]3(O)CC + Nc1ccc(C#CCN(C(=O)Cc2ncc(C(F)(F)F)cc2C(F)(F)F)c2ccc(F)cc2)nn1
Second compound 0.0316 µM
  IC50: 24.9 nM
Second compound 0.1 µM
  IC50: 15.4 nM
Second compound 0.316 µM
  IC50: 29.5 nM
Second compound 1 µM
  IC50: 20 nM
Second compound 3.16 µM
  IC50: 21.9 nM
Second compound 10 µM
  IC50: 16.3 nM
Second compound 0.0316 µM, first compound 0.00316 µM
  viability, T/C: 89.5%
Second compound 0.0316 µM, first compound 0.01 µM
  viability, T/C: 91.4%
[1]
  viability, T/C: 39.2%
[2]
  viability, T/C: 19%
[3]
  viability, T/C: 6.65%
[4]
  viability, T/C: 10.3%
Second compound 0.1 µM, first compound 0.00316 µM
  viability, T/C: 89.9%
Second compound 0.1 µM, first compound 0.01 µM
  viability, T/C: 60.1%
[5]
  viability, T/C: 32.7%
[6]
  viability, T/C: 20.1%
[7]
  viability, T/C: 6.93%
[8]
  viability, T/C: 6.26%
Second compound 0.316 µM, first compound 0.00316 µM
  viability, T/C: 79.8%
Second compound 0.316 µM, first compound 0.01 µM
  viability, T/C: 65.1%
[9]
  viability, T/C: 51.6%
[10]
  viability, T/C: 19.6%
[11]
  viability, T/C: 6.57%
[12]
  viability, T/C: 10.8%
Second compound 1 µM, first compound 0.00316 µM
  viability, T/C: 83.5%
Second compound 1 µM, first compound 0.01 µM
  viability, T/C: 70.4%
[13]
  viability, T/C: 33.9%
[14]
  viability, T/C: 22.8%
[15]
  viability, T/C: 5.79%
[16]
  viability, T/C: 5.67%
Second compound 3.16 µM, first compound 0.00316 µM
  viability, T/C: 74.1%
Second compound 3.16 µM, first compound 0.01 µM
  viability, T/C: 66.7%
[17]
  viability, T/C: 42%
[18]
  viability, T/C: 16.7%
[19]
  viability, T/C: 7.19%
[20]
  viability, T/C: 6.33%
Second compound 10 µM, first compound 0.00316 µM
  viability, T/C: 76.5%
Second compound 10 µM, first compound 0.01 µM
  viability, T/C: 65.5%
[21]
  viability, T/C: 29%
[22]
  viability, T/C: 17.8%
[23]
  viability, T/C: 9.23%
[24]
  viability, T/C: 3.78%
